What all share (format): cell-based, HIV-1
One test has as its system HIV-IIIb (wildtype). Kind of test: Antiviral assay in MT4 cells, HIV-IIIb wildtype. The note with it: Human immunodeficiency virus 1, IIIB, MT4, 120 h, read-out: WT EC50. As to the method: (§1) Antiviral Assay in MT4 Cells
(§2) For the antiviral assay, 0.4 μL of 189X test concentration of 3-fold serially diluted compound in DMSO was added to 40 μL of cell growth medium (RPMI 1640, 10% FBS, 1% Penicillin-Streptomycin, 1% L-Glutamine, 1% HEPES) in each well of 384-well plate (10 concentrations) in quadruplicate.
(§3) 1 mL Aliquots of MT4 cells were pre-infected for 3 hours at 37° C. with 25 μL of cell growth medium (mock-infected) or a fresh 1:250 dilution of an HIV-IIIb (wildtype, IN T174I BT, or IN T174I DE) concentrated ABI stock (0.004 m.o.i.). IN T174I BT virus was derived from viral breakthrough (BT) assay as described in Mulato, A.; Hansen, D.; Thielen, A.; Porter, D.; Stepan, G.; White, K.; Daeumer, M.; Cihlar, T.; Yant, S. R. AIDS Research and Human Retrovirues, July 2016, ahead of print. doi:10.1089/aid.2016.0071. IN T174I DE virus was derived from serial passaging with dose escalation (DE) of test compound. Infected and uninfected cells were diluted in cell growth media and 35 μL (2000 cells) was added to each well of the assay plates.
(§4) Assay plates were then maintained in a humidified, 5% CO2 incubator at 37° C. After 5 days of incubation, 25 μl of 2× concentrated CellTiter-Glo™ Reagent (catalog # G7573, Promega Biosciences, Inc., Madison, Wis.) was added to each well of the assay plate. Cell lysis was carried out by incubating at room temperature for 10 minutes and then chemiluminescence was read using an Envision plate reader (PerkinElmer). EC50 values were calculated as the compound concentration that caused a 50% […] in luminescence signal, a measure of HIV-1 replication.

Another test relates to HIV-IIIb IN T174I BT. Kind of test: Antiviral assay in MT4 cells, HIV-IIIb IN T174I BT virus (from viral breakthrough). The note with it: Human immunodeficiency virus 1, IIIB, MT4, 120 h, read-out: T174I BT EC50, MT4 cells, HIV-IIIb IN T174I BT (viral breakthrough), 5 days, CellTiter-Glo. As to the method: as §1, §2, §3, §4
(In general: ATP-based viability assays read luminescence as a measure of living cells.)

Another test has as its system HIV-IIIb IN T174I DE. Put plainly: Antiviral assay in MT4 cells, HIV-IIIb IN T174I DE virus (from dose escalation passaging). The conditions noted are these: Human immunodeficiency virus 1, IIIB, MT4, 120 h, read-out: T174I DE EC50, MT4 cells, HIV-IIIb IN T174I DE (dose escalation), 5 days, CellTiter-Glo. As to the method: as §1, §2, §3, §4

This note sets out measurements from patent US10800772B2 (Gilead Sciences, Inc., priority 2016, dated 2020).

With `CCn1nc2ccc(-c3nc4cc(C)c([C@H](OC(C)(C)C)C(=O)O)c(-c5ccc(Cl)cc5)c4s3)cc2c1C1CCN(C2COC2)CC1` [Compound 36, (S)-2-(tert-butoxy)-2-(7-(4-chlorophenyl)-2-(2-ethyl-3-(1-(oxetan-3-yl)piperidin-4-yl)-2H-indazol-5-yl)-5-methylbenzo[d]thiazol-6-yl)acetic acid], the results for the EC50 in the test on HIV-IIIb (wildtype), in the test on HIV-IIIb IN T174I BT and with HIV-IIIb IN T174I DE were 14 nM, 1080 nM and 3580 nM, respectively.

With `Cc1cc2nc(-c3ccc4c(c3)c(C3=CCOC3)nn4C)sc2c(-c2ccc(Cl)cc2)c1[C@H](OC(C)(C)C)C(=O)O` [Compound 51, (S)-2-(tert-butoxy)-2-(7-(4-chlorophenyl)-2-(3-(2,5-dihydrofuran-3-yl)-1-methyl-1H-indazol-5-yl)-5-methylbenzo[d]thiazol-6-yl)acetic acid], the EC50 with HIV-IIIb (wildtype) came out at 15 nM; with HIV-IIIb IN T174I BT, 2720 nM; in the test on HIV-IIIb IN T174I DE, 3590 nM.

As to `COC(=O)N1CC(N2CCC(c3cn(C)c4ncc(-c5nc6cc(C)c([C@H](OC(C)(C)C)C(=O)O)c(-c7ccc(Cl)cc7)c6s5)cc34)CC2)C1` [Compound 203, (S)-2-(tert-butoxy)-2-(7-(4-chloro-phenyl)-2-(3-(1-(1-(methoxycarbonyl)azetidin-3-yl)piperidin-4-yl)-1-methyl-1H-pyrrolo[2,3-b]pyridin-5-yl)-5-methylbenzo[d]thiazol-6-yl) acetic acid], the EC50 with HIV-IIIb (wildtype) turned out to be 11 nM; with HIV-IIIb IN T174I BT, 215 nM; in the test on HIV-IIIb IN T174I DE, 702 nM.

Turning to `Cc1cc2nc(-c3cnc4c(c3)c(C3CCN(C5COC5)CC3)nn4C)sc2c(-c2ccc(Cl)cc2)c1[C@H](OC(C)(C)C)C(=O)O` [Compound 113, (S)-2-(tert-butoxy)-2-(7-(4-chlorophenyl)-5-methyl-2-(1-methyl-3-(1-(oxetan-3-yl)piperidin-4-yl)-1H-pyrazolo[3,4-b]pyridin-5-yl)benzo[d]thiazol-6-yl)acetic acid], the EC50 in the test with HIV-IIIb (wildtype) was determined as 5 nM; with HIV-IIIb IN T174I BT, 871 nM; in the test on HIV-IIIb IN T174I DE, 1520 nM.

For `Cc1cc2nc(-c3ccc4c(c3)c(N3CCN([C@H]5C[C@@H](O)C5)CC3)nn4C)sc2c(-c2ccc(Cl)cc2)c1[C@H](OC(C)(C)C)C(=O)O` [Compound 206, (S)-2-(tert-butoxy)-2-(7-(4-chloro-phenyl)-2-(3-(4-((1s,3s)-3-hydroxy-cyclobutyl)piperazin-1-yl)-1-methyl-1H-indazol-5-yl)-5-methylbenzo[d]thiazol-6-yl) acetic acid], the EC50 with HIV-IIIb (wildtype) stood at 21 nM; in the test on HIV-IIIb IN T174I BT, 340 nM; with HIV-IIIb IN T174I DE it was 539 nM.

As for `Cc1cc2nc(-c3ccc4c(c3)c(C3CCN(C(=O)C5(C)CCCO5)CC3)nn4C)sc2c(-c2ccc(Cl)cc2)c1[C@H](OC(C)(C)C)C(=O)O` (stereo partly drawn) [Compound 158, (2S)-2-(tert-butoxy)-2-(7-(4-chloro-phenyl)-5-methyl-2-(1-methyl-3-(1-(2-methyltetrahydro-furan-2-carbonyl)piperidin-4-yl)-1H-indazol-5-yl)benzo [d]thiazol-6-yl) acetic acid], the EC50 came out at 11 nM in the test with HIV-IIIb (wildtype), 1300 nM in the test with HIV-IIIb IN T174I BT and 1670 nM in the test on HIV-IIIb IN T174I DE.

Regarding `CCOC(=O)N1CC(N2CCC(c3nn(C)c4ncc(-c5nc6cc(C)c([C@H](OC(C)(C)C)C(=O)O)c(-c7ccc(Cl)cc7)c6s5)cc34)CC2)C1` [Compound 115, (S)-2-(tert-butoxy)-2-(7-(4-chlorophenyl)-2-(3-(1-(1-(ethoxycarbonyl)azetidin-3-yl)piperidin-4-yl)-1-methyl-1H-pyrazolo[3,4-b]pyridin-5-yl)-5-methylbenzo[d]thiazol-6-yl)acetic acid], the EC50 was 14 nM in the test on HIV-IIIb (wildtype), 1600 nM in the test on HIV-IIIb IN T174I BT and 2450 nM in the test with HIV-IIIb IN T174I DE.

As to `Cc1cc2nc(-c3ccc4c(n3)c(N3CCN(C5CS(=O)(=O)C5)CC3)nn4C)sc2c(-c2ccc(Cl)cc2)c1[C@H](OC(C)(C)C)C(=O)O` [Compound 198, (S)-2-(tert-butoxy)-2-(7-(4-chloro-phenyl)-2-(3-(4-(1,1-dioxidothietan-3-yl)piperazin-1-yl)-1-methyl-1H-pyrazolo[4,3-b]pyridin-5-yl)-5-methylbenzo[d]thiazol-6-yl) acetic acid], the EC50 with HIV-IIIb (wildtype) was 9 nM; in the test on HIV-IIIb IN T174I BT, 1040 nM; with HIV-IIIb IN T174I DE it was 4620 nM.

Consider `Cc1cc2nc(-c3ccc4c(c3)c(N3CC5(CCCCC5)C3)nn4C)sc2c(-c2ccc(Cl)cc2)c1[C@H](OC(C)(C)C)C(=O)O` [Compound 97, (S)-2-(tert-butoxy)-2-(7-(4-chlorophenyl)-5-methyl-2-(1-methyl-3-(2-azaspiro[3.5]nonan-2-yl)-1H-indazol-5-yl)benzo[d]thiazol-6-yl)acetic acid], for which the EC50 turned out to be 150 nM in the test on HIV-IIIb (wildtype), 6810 nM in the test on HIV-IIIb IN T174I BT and 9190 nM with HIV-IIIb IN T174I DE.

In the case of `COCCN1CCC(c2nn(C)c3ccc(-c4nc5cc(C)c([C@H](OC(C)(C)C)C(=O)O)c(-c6ccc(Cl)cc6)c5s4)cc23)C1` (stereo partly drawn) [Compound 65, (2S)-2-(tert-butoxy)-2-(7-(4-chlorophenyl)-2-(3-(1-(2-methoxyethyl)pyrrolidin-3-yl)-1-methyl-1H-indazol-5-yl)-5-methylbenzo[d]thiazol-6-yl)acetic acid], the EC50 in the test with HIV-IIIb (wildtype) amounted to 4 nM; in the test on HIV-IIIb IN T174I BT, 752 nM; in the test with HIV-IIIb IN T174I DE, 2120 nM.

As to `COC1CCN(c2nn(C)c3ccc(-c4nc5cc(C)c([C@H](OC(C)(C)C)C(=O)O)c(-c6ccc(Cl)cc6)c5s4)cc23)CC1` [Compound 142, (S)-2-(tert-butoxy)-2-(7-(4-chloro-phenyl)-2-(3-(4-methoxypiperidin-1-yl)-1-methyl-1H-indazol-5-yl)-5-methylbenzo[d]thiazol-6-yl) acetic acid], the figures for the EC50 in the test on HIV-IIIb (wildtype), with HIV-IIIb IN T174I BT and with HIV-IIIb IN T174I DE were 12 nM, 1560 nM and 2330 nM, respectively.

As for `Cc1cc2nc(-c3ccc4c(c3)c(C3CCN(C5CN(C(=O)C6CC6)C5)CC3)nn4C)sc2c(-c2ccc(Cl)cc2)c1[C@H](OC(C)(C)C)C(=O)O` [Compound 152, (S)-2-(tert-butoxy)-2-(7-(4-chloro-phenyl)-2-(3-(1-(1-(cyclopropane-carbonyl)azetidin-3-yl)piperidin-4-yl)-1-methyl-1H-indazol-5-yl)-5-methylbenzo[d]thiazol-6-yl) acetic acid], the results for the EC50 in the test with HIV-IIIb (wildtype), in the test on HIV-IIIb IN T174I BT and in the test on HIV-IIIb IN T174I DE were 23 nM, 175 nM and 210 nM, respectively.

Regarding `Cc1cc2nc(-c3ccc4c(c3)c(N3CC5(CN(C)C5)C3)nn4C)sc2c(-c2ccc(Cl)cc2)c1[C@H](OC(C)(C)C)C(=O)O` [Compound 89, (S)-2-(tert-butoxy)-2-(7-(4-chlorophenyl)-5-methyl-2-(1-methyl-3-(6-methyl-2,6-diazaspiro[3.3]heptan-2-yl)-1H-indazol-5-yl)benzo[d]thiazol-6-yl)acetic acid], the figures for the EC50 with HIV-IIIb (wildtype), in the test on HIV-IIIb IN T174I BT and in the test on HIV-IIIb IN T174I DE were 107 nM, 57000 nM and 57000 nM, respectively.

Take `[2H]C([2H])([2H])n1nc(C2CCN(C3CN(C(=O)OC)C3)CC2)c2nc(-c3nc4cc(C)c([C@H](OC(C)(C)C)C(=O)O)c(-c5ccc(Cl)cc5)c4s3)ccc21` [Compound 191, (S)-2-(tert-butoxy)-2-(7-(4-chloro-phenyl)-2-(3-(1-(1-(methoxycarbonyl)azetidin-3-yl)piperidin-4-yl)-1-(methyl-d3)-1H-pyrazolo[4,3-b]pyridin-5-yl)-5-methylbenzo[d]thiazol-6-yl) acetic acid]: the EC50 in the test on HIV-IIIb (wildtype) was determined as 2 nM; in the test with HIV-IIIb IN T174I BT, 55 nM; with HIV-IIIb IN T174I DE it was 108 nM.

As to `Cc1cc2nc(-c3ccc4c(c3)c(N3CCN(C)CC3=O)nn4C)sc2c(-c2ccc(Cl)cc2)c1[C@H](OC(C)(C)C)C(=O)O` [Compound 87, (S)-2-(tert-butoxy)-2-(7-(4-chlorophenyl)-5-methyl-2-(1-methyl-3-(4-methyl-2-oxopiperazin-1-yl)-1H-indazol-5-yl)benzo[d]thiazol-6-yl)acetic acid], the EC50 in the test on HIV-IIIb (wildtype) was 13 nM.

`Cc1cc2nc(-c3ccc4c(n3)c(N3CCN(C)CC3)nn4C)sc2c(-c2ccc(Cl)cc2)c1[C@H](OC(C)(C)C)C(=O)O` [Compound 196, (S)-2-(tert-butoxy)-2-(7-(4-chloro-phenyl)-5-methyl-2-(1-methyl-3-(4-methylpiperazin-1-yl)-1H-pyrazolo [4,3-b]pyridin-5-yl)benzo[d]thiazol-6-yl)acetic acid]: in the test with HIV-IIIb (wildtype), the EC50 worked out at 4 nM.

One may read the EC50 as the midpoint of the concentration-response curve.
